The record followed here is US10251394B2, “Molecules having pesticidal utility, and intermediates, compositions, and processes, related thereto” (Dow AgroSciences LLC, priority 2016, dated 2019).

Assay [1] has as its system Cabbage Looper (Trichoplusia ni). Put plainly: Bioassay on Cabbage Looper (CL), 128-well diet tray assay. It is filed as in vivo. To be noted: for pest or weed control at 50 µg/cm2: Cabbage Looper, Table ABC, read-out: CL rating; for mortality at 0.05 µg/cm2 / mortality at 0.5 µg/cm2 / mortality at 5 µg/cm2: 168 h, second instar larvae, five to seven days, read-out: CL Percent control (or mortality); for mortality at 0.05 µg/cm2: 0.05 μg/cm^2 on artificial diet; for mortality at 0.5 µg/cm2: 0.5 μg/cm^2 on artificial diet; for mortality at 5 µg/cm2: 5 μg/cm^2 on artificial diet. The method, boiled down: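 Second-instar larvae, one to five per well, placed on artificial diet surface-treated with 50 μg/cm^2 compound in acetone-water, eight wells per compound. Held 5-7 days at 25° C, 14:10 light-dark; percent mortality per well averaged across wells.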

For assay [2], the system named is Beet Armyworm (Spodoptera exigua). Briefly: Bioassay on Beet Armyworm (BAW), 128-well diet tray assay. It is filed as in vivo. To be noted: for pest or weed control at 50 µg/cm2: Beet Armyworm, Table ABC, read-out: BAW rating; for mortality at 0.05 µg/cm2 / mortality at 0.5 µg/cm2 / mortality at 5 µg/cm2: 168 h, second instar larvae, five to seven days, read-out: BAW Percent control (or mortality); for mortality at 0.05 µg/cm2: 0.05 μg/cm^2 on artificial diet; for mortality at 0.5 µg/cm2: 0.5 μg/cm^2 on artificial diet; for mortality at 5 µg/cm2: 5 μg/cm^2 on artificial diet. The gist of the method: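 Second-instar larvae (one to five per well) placed on artificial diet surface-treated with 50 μg/cm^2 test molecule in 90:10 acetone-water, dried, eight wells per molecule. Held at 25° C, 14:10 light-dark, five to seven days; percent mortality recorded per well and averaged across the eight wells.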

`O=C(NC1(C(=O)NCC(F)F)CC1)c1ccc(/C(F)=C/C(c2cc(Cl)c(Cl)c(Cl)c2)C(F)(F)F)cc1C(F)(F)F` (stereo not drawn) [F95, (Z)—N-(1-((2,2-Difluoroethyl)carbamoyl)cyclopropyl)-4-(1,4,4,4-tetrafluoro-3-(3,4,5-trichlorophenyl)but-1-en-1-yl)-2-(trifluoromethyl)benzamide]: the pest or weed control at 50 µg/cm2 in assay [1] and in assay [2] was 50 to 100% each time.
Consider `NC(=O)CNC(=O)c1ccc(/C(F)=C/C(c2cc(Cl)c(Cl)c(Cl)c2)C(F)(F)F)cc1C(F)(F)F` (stereo not drawn) [F127, (Z)—N-(2-Amino-2-oxoethyl)-4-(1,4,4,4-tetrafluoro-3-(3,4,5-trichlorophenyl)but-1-en-1-yl)-2-(trifluoromethyl)benzamide], for which the pest or weed control at 50 µg/cm2 in assay [1] and in assay [2] was 50 to 100% throughout.
For the compound `O=C(N[C@@H]1CON(CC(F)(F)F)C1=O)c1ccc(/C(F)=C/C(c2cc(Cl)c(Cl)c(Cl)c2)C(F)(F)F)cc1C(F)(F)F` (stereo partly drawn) [F106, N—((R)-3-Oxo-2-(2,2,2-trifluoroethyl)isoxazolidin-4-yl)-4-((Z)-1,4,4,4-tetrafluoro-3-(3,4,5-trichlorophenyl)but-1-en-1-yl)-2-(trifluoromethyl)benzamide], the pest or weed control at 50 µg/cm2 in assay [1] and in assay [2] was 50 to 100% throughout.
Consider `O=C(NC1(C(=S)NCC(F)(F)F)CC1)c1ccc(/C(F)=C/C(c2cc(Cl)c(Cl)c(Cl)c2)C(F)(F)F)cc1C(F)(F)F` (stereo not drawn) [PF98, (Z)-4-(1,4,4,4-Tetrafluoro-3-(3,4,5-trichlorophenyl)but-1-en-1-yl)-N-(1-((2,2,2-trifluoroethyl)carbamothioyl)cyclopropyl)-2-(trifluoromethyl)benzamide], for which the pest or weed control at 50 µg/cm2 in assay [1] and in assay [2] was 50 to 100% throughout.
In the case of `C[C@@H](NC(=O)c1ccc(/C(F)=C/C(c2cc(Cl)c(Cl)c(Cl)c2)C(F)(F)F)cc1Br)C(=O)NCC(F)(F)F` (stereo partly drawn) [F18, 2-Bromo-N—((R)-1-oxo-1-((2,2,2-trifluoroethyl)amino)propan-2-yl)-4-((Z)-1,4,4,4-tetrafluoro-3-(3,4,5-trichlorophenyl)but-1-en-1-yl)benzamide], in assay [1], the mortality at 0.05 µg/cm2 is 100%, the mortality at 0.5 µg/cm2 is 100%, the mortality at 5 µg/cm2 is 100% and the pest or weed control at 50 µg/cm2 was 50 to 100%. For the same compound, in assay [2], the mortality at 0.05 µg/cm2 was 100%, the mortality at 0.5 µg/cm2 stood at 100%, the mortality at 5 µg/cm2 came out at 100% and the pest or weed control at 50 µg/cm2 lay within 50 to 100%.
With `CC(F)(F)C(/C=C(\F)c1ccc(C(=O)NCC(=O)NCC(F)(F)F)c(C(F)(F)F)c1)c1cc(Cl)c(Cl)c(Cl)c1` (stereo not drawn) [F62, (Z)—N-(2-Oxo-2-((2,2,2-trifluoroethyl)amino)ethyl)-4-(1,4,4-trifluoro-3-(3,4,5-trichlorophenyl)pent-1-en-1-yl)-2-(trifluoromethyl)benzamide], the pest or weed control at 50 µg/cm2 in assay [1] and in assay [2] was 50 to 100% each time.
As to `Cc1cc(/C(F)=C/C(c2cc(Cl)c(Cl)c(Cl)c2)C(F)(F)F)ccc1C(=O)N[C@H](C)C(=O)NCC(F)(F)F` (stereo partly drawn) [F7, 2-Methyl-N—((R)-1-oxo-1-((2,2,2-trifluoroethyl)amino)propan-2-yl)-4-((Z)-1,4,4,4-tetrafluoro-3-(3,4,5-trichlorophenyl)but-1-en-1-yl)benzamide], in assay [1], the mortality at 0.05 µg/cm2 was determined as 100%, the mortality at 0.5 µg/cm2 came out at 100% and the pest or weed control at 50 µg/cm2 lay in the range of 50 to 100%. For the same compound, in assay [2], the mortality at 0.05 µg/cm2 is 100%, the mortality at 0.5 µg/cm2 was 100% and the pest or weed control at 50 µg/cm2 lay in the range of 50 to 100%.
As to `O=C(CNC(=O)c1ccc(/C(F)=C/C(c2cc(Cl)c(Cl)c(Cl)c2)C(F)(F)F)cc1Br)NCC(F)(F)F` (stereo not drawn) [F19, (Z)-2-Bromo-N-(2-oxo-2-((2,2,2-trifluoroethyl)amino)ethyl)-4-(1,4,4,4-tetrafluoro-3-(3,4,5-trichlorophenyl)but-1-en-1-yl)benzamide], in assay [1], the mortality at 0.05 µg/cm2 worked out at 100%, the mortality at 0.5 µg/cm2 came to 100%, the mortality at 5 µg/cm2 is 100% and the pest or weed control at 50 µg/cm2 fell in the range of 50 to 100%. For the same compound, in assay [2], the mortality at 0.05 µg/cm2 was 100%, the mortality at 0.5 µg/cm2 was determined as 100%, the mortality at 5 µg/cm2 was 100% and the pest or weed control at 50 µg/cm2 lay within 50 to 100%.
On to `C#CCNC(=O)C1(NC(=O)c2ccc(/C(F)=C/C(c3cc(Cl)c(Cl)c(Cl)c3)C(F)(F)F)cc2C(F)(F)F)CC1` (stereo not drawn) [F94, (Z)—N-(1-(Prop-2-yn-1-ylcarbamoyl)cyclopropyl)-4-(1,4,4,4-tetrafluoro-3-(3,4,5-trichlorophenyl)but-1-en-1-yl)-2-(trifluoromethyl)benzamide], for which the pest or weed control at 50 µg/cm2 in assay [1] and in assay [2] was 50 to 100% each time.
Consider `Cc1cc(/C(F)=C/C(c2cc(Cl)c(Cl)c(Cl)c2)C(F)(F)F)ccc1C(=O)N[C@H](C)C(=O)NCCC1CC1` (stereo partly drawn) [F15, N—((R)-1-((2-Cyclopropylethyl)amino)-1-oxopropan-2-yl)-2-methyl-4-((Z)-1,4,4,4-tetrafluoro-3-(3,4,5-trichlorophenyl)but-1-en-1-yl)benzamide], for which the pest or weed control at 50 µg/cm2 in assay [1] and in assay [2] was 50 to 100% each time.
Turning to `C[C@@H](NC(=O)c1ccc(/C(F)=C/C(c2cc(Cl)c(Cl)c(C#N)c2)C(F)(F)F)cc1C(F)(F)F)C(=O)NCC(F)(F)F` (stereo partly drawn) [F192, 4-((Z)-3-(3,4-Dichloro-5-cyanophenyl)-1,4,4,4-tetrafluorobut-1-en-1-yl)-N—((R)-1-oxo-1-((2,2,2-trifluoroethyl)amino)propan-2-yl)-2-(trifluoromethyl)benzamide], the pest or weed control at 50 µg/cm2 in assay [1] and in assay [2] was 50 to 100% in each case.
In the case of `Cc1cc(/C(F)=C/C(c2cc(Cl)c(Cl)c(Cl)c2)C(F)(F)F)ccc1C(=O)NC1(C(=O)NCCC2CC2)CC1` (stereo not drawn) [F10, (Z)—N-(1-((2-Cyclopropylethyl)carbamoyl)cyclopropyl)-2-methyl-4-(1,4,4,4-tetrafluoro-3-(3,4,5-trichlorophenyl)but-1-en-1-yl)benzamide], the pest or weed control at 50 µg/cm2 in assay [1] and in assay [2] was 50 to 100% throughout.
With `CNC(=O)[C@@H](C)NC(=O)c1ccc(/C(F)=C/C(c2cc(Cl)c(Cl)c(Cl)c2)C(F)(F)F)cc1C(F)(F)F` (stereo partly drawn) [F173, N—((R)-1-(Methylamino)-1-oxopropan-2-yl)-4-((Z)-1,4,4,4-tetrafluoro-3-(3,4,5-trichlorophenyl)but-1-en-1-yl)-2-(trifluoromethyl)benzamide], the pest or weed control at 50 µg/cm2 in assay [1] and in assay [2] was 50 to 100% throughout.
Consider `C[C@@H](NC(=O)c1ccc(/C(F)=C/C(c2cc(Cl)c(Cl)c(Cl)c2)C(F)(F)F)cc1C(F)(F)F)C(=O)NCCC1CC1` (stereo partly drawn) [F12, N—((R)-1-((2-Cyclopropylethyl)amino)-1-oxopropan-2-yl)-4-((Z)-1,4,4,4-tetrafluoro-3-(3,4,5-trichlorophenyl)but-1-en-1-yl)-2-(trifluoromethyl)benzamide], for which the pest or weed control at 50 µg/cm2 in assay [1] and in assay [2] was 50 to 100% throughout.
As for `CN(CC(F)(F)F)C(=O)CNC(=O)c1ccc(/C(F)=C/C(c2cc(Cl)c(Cl)c(Cl)c2)C(F)(F)F)cc1Cl` (stereo not drawn) [F47, (Z)-2-Chloro-N-(2-(methyl(2,2,2-trifluoroethyl)amino)-2-oxoethyl)-4-(1,4,4,4-tetrafluoro-3-(3,4,5-trichlorophenyl)but-1-en-1-yl)benzamide], the pest or weed control at 50 µg/cm2 in assay [1] and in assay [2] was 50 to 100% throughout.
Take `C[C@@H](NC(=O)c1ccc(/C(F)=C/C(c2cc(Cl)cc(Cl)c2)C(F)(F)F)cc1C(F)(F)F)C(=O)NCC(F)(F)F` (stereo partly drawn) [F105, 4-((Z)-3-(3,5-Dichlorophenyl)-1,4,4,4-tetrafluorobut-1-en-1-yl)-N—((R)-1-oxo-1-((2,2,2-trifluoroethyl)amino)propan-2-yl)-2-(trifluoromethyl)benzamide]: the pest or weed control at 50 µg/cm2 in assay [1] and in assay [2] was 50 to 100% throughout.
Regarding `CN(CC(F)(F)F)C(=O)C1(NC(=O)c2ccc(/C(F)=C/C(c3cc(Cl)c(Cl)c(Cl)c3)C(F)(F)F)cc2Cl)CC1` (stereo not drawn) [F97, (Z)-2-Chloro-N-(1-(methyl(2,2,2-trifluoroethyl)carbamoyl)cyclopropyl)-4-(1,4,4,4-tetrafluoro-3-(3,4,5-trichlorophenyl)but-1-en-1-yl)benzamide], the pest or weed control at 50 µg/cm2 in assay [1] and in assay [2] was 50 to 100% each time.
As for `CCNC(=O)[C@@H](C)NC(=O)c1ccc(/C(F)=C/C(c2cc(Cl)c(Cl)c(Cl)c2)C(F)(F)F)cc1Cl` (stereo partly drawn) [F64, 2-Chloro-N—((R)-1-(ethylamino)-1-oxopropan-2-yl)-4-((Z)-1,4,4,4-tetrafluoro-3-(3,4,5-trichlorophenyl)but-1-en-1-yl)benzamide], the pest or weed control at 50 µg/cm2 in assay [1] and in assay [2] was 50 to 100% each time.
`CCN(CC(F)(F)F)C(=O)[C@@H](C)NC(=O)c1ccc(/C(F)=C/C(c2cc(Cl)c(Cl)c(Cl)c2)C(F)(F)F)cc1C(F)(F)F` (stereo partly drawn) [F20, N—((R)-1-(Ethyl(2,2,2-trifluoroethyl)amino)-1-oxopropan-2-yl)-4-((Z)-1,4,4,4-tetrafluoro-3-(3,4,5-trichlorophenyl)but-1-en-1-yl)-2-(trifluoromethyl)benzamide]: the pest or weed control at 50 µg/cm2 in assay [1] and in assay [2] was 50 to 100% each time.

As usually defined, the mortality is the percentage killed.
